According to ChEMBL document CHEMBL1124264, “Predictive structure-activity relationships in a series of pyranoquinoline derivatives. A new primate model for the identification of antiallergic activity” (J Med Chem, 1988):

Tests used:
[1] = Biological activity expressed as the Log potency ratio (PR) of the compound relative to a standard compound 63; assay type: ADME; details: octanol/water
Monkey = test: In vitro inhibition of anti-IgE induced histamine release from bronchoalveolar mast cells of monkey infected with Ascaris suum; assay type: functional, Cercopithecidae, Lung
[2] = Dissociation constant using spectrophotometric method; assay type: physicochemical
[3] = log PR value using spectrophotometric method; assay type: ADME; details: octanol/water
[4] = log PR value (eq 2); assay type: ADME; details: octanol/water
[5] = Dissociation constant (eq 2); assay type: physicochemical; details: read-out: pK3
[6] = Dissociation constant (pKa1) using partition method; assay type: physicochemical; details: read-out: pKa1
[7] = Dissociation constant (pKa2) using partition method; assay type: physicochemical; details: read-out: pKa2

| Log PR [1] | Compound | Potency ratio (Monkey) | other results |
| --- | --- | --- | --- |
| 0.43 | CCCc1c2nc(C(=O)[O-])cc(-n3cccc3)c2cc2c(=O)cc(C(=O)[O-])oc12.[Na+].[Na+] | 2.686 |  |
| -0.15 | CCCc1c2nc(C(=O)[O-])cc(Nc3ccccc3)c2cc2c(=O)cc(C(=O)[O-])oc12.[Na+].[Na+] | 0.706 | pKa [2]: 7.78; Log PR [3]: 0.39 |
| -0.05 | CCCc1c2nc(C(=O)[O-])cc(NC(=O)Nc3ccccc3)c2cc2c(=O)cc(C(=O)[O-])oc12.[Na+].[Na+] | 0.895 |  |
| 0.88 | CCCc1c2nc(C(=O)[O-])cc(Sc3ccccc3)c2cc2c(=O)cc(C(=O)[O-])oc12.[Na+].[Na+] | 7.54 |  |
| 0.02 | CCCc1c2nc(C(=O)[O-])cc(Br)c2cc2c(=O)cc(C(=O)[O-])oc12.[Na+].[Na+] | 1.04 |  |
| 0.8 | CCCc1c2nc(C(=O)[O-])cc(/C=C/c3ccccc3)c2cc2c(=O)cc(C(=O)[O-])oc12.[Na+].[Na+] | 6.326 |  |
| -0.27 | CCCc1c2nc(C(=O)[O-])cc(S(=O)Oc3ccccc3)c2cc2c(=O)cc(C(=O)[O-])oc12.[Na+].[Na+] (stereo not drawn) | 0.536 |  |
| -0.13 | CCCc1c2nc(C(=O)[O-])cc(/C=N/NC(=O)c3ccccc3)c2cc2c(=O)cc(C(=O)[O-])oc12.[Na+].[Na+] | 0.748 |  |
| -0.4 | CCCc1c2nc(C(=O)[O-])cc(OCC)c2cc2c(=O)cc(C(=O)[O-])oc12.[Na+].[Na+] | 0.4 |  |
| 0.51 | CCCc1c2nc(C(=O)[O-])cc(Oc3ccccc3)c2cc2c(=O)cc(C(=O)[O-])oc12.[Na+].[Na+] | 3.244 |  |
| 0.04 | CCCc1c2nc(C(=O)[O-])cc(Cl)c2cc2c(=O)cc(C(=O)[O-])oc12.[Na+].[Na+] | 1.096 |  |

Second part, the compound before the results:

| Compound | Log PR [1] | Potency ratio (Monkey) | other results |
| --- | --- | --- | --- |
| CCCc1c2nc(C(=O)[O-])cc(C=O)c2cc2c(=O)cc(C(=O)[O-])oc12.[Na+].[Na+] | -0.63 | 0.237 |  |
| CCCc1c2nc(C(=O)[O-])cc(NC(C)=O)c2cc2c(=O)cc(C(=O)[O-])oc12.[Na+].[Na+] | -1.19 | 0.065 |  |
| CCCc1c2nc(C(=O)[O-])cc(N3CCCC3)c2cc2c(=O)cc(C(=O)[O-])oc12.[Na+].[Na+] | 0.14 | 0.017 | Log PR [4]: -1.25; pKa [5]: 8.75 |
| CCCc1c2nc(C(=O)[O-])cc(O)c2cc2c(=O)cc(C(=O)[O-])oc12.[Na+].[Na+] | 0.37 | 2.366 |  |
| CCCc1c2nc(C(=O)[O-])cc(C)c2cc2c(=O)cc(C(=O)[O-])oc12.[Na+].[Na+] | -0.42 | 0.379 |  |
| CCCc1c2nc(C(=O)[O-])ccc2cc2c(=O)cc(C(=O)[O-])oc12.[Na+].[Na+] | -1 | 0.1 |  |
| CCCc1c2nc(C(=O)[O-])cc(SCC)c2cc2c(=O)cc(C(=O)[O-])oc12.[Na+].[Na+] | 0.35 | 2.249 |  |
| CCCc1c2nc(C(=O)[O-])cc(C(F)(F)C(F)(F)C(F)(F)F)c2cc2c(=O)cc(C(=O)[O-])oc12.[Na+].[Na+] | 0.57 | 3.725 |  |
| CCCc1c2nc(C(=O)[O-])cc(N)c2cc2c(=O)cc(C(=O)[O-])oc12.[Na+].[Na+] | 0.12 | 0.057 | Log PR [4]: -1.25; pKa [5]: 8.75 |
| CCCc1c2nc(C(=O)[O-])cc(NCC)c2cc2c(=O)cc(C(=O)[O-])oc12.[Na+].[Na+] | -2.15 | 0.007 | pKa [2]: 8.64; Log PR [3]: -0.89 |
| CCCc1c2nc(C(=O)[O-])cc(C(F)(F)C(F)(F)F)c2cc2c(=O)cc(C(=O)[O-])oc12.[Na+].[Na+] | 0.45 | 2.83 |  |
| CCCc1c2nc(C(=O)[O-])cc(NC)c2cc2c(=O)cc(C(=O)[O-])oc12.[Na+].[Na+] | -0.66 | 0.012 | pKa [6]: 0.5; pKa [7]: 1.62; Log PR [4]: -1.91; pKa [5]: 8.63 |
| CCCc1c2nc(C(=O)[O-])cc(C(F)(F)F)c2cc2c(=O)cc(C(=O)[O-])oc12.[Na+].[Na+] | 0.4 | 2.53 |  |
| CCCc1c2nc(C(=O)[O-])cc(N(C)C(C)=O)c2cc2c(=O)cc(C(=O)[O-])oc12.[Na+].[Na+] | -2.05 | 0.009 |  |
| CCCc1c2nc(C(=O)[O-])cc(C#N)c2cc2c(=O)cc(C(=O)[O-])oc12.[Na+].[Na+] | 0.07 | 1.161 |  |
| CCCc1c2nc(C(=O)[O-])cc(C(=O)[O-])c2cc2c(=O)cc(C(=O)[O-])oc12.[Na+].[Na+].[Na+] | -1.27 | 0.053 |  |
| CCCc1c2nc(C(=O)[O-])cc(C3OCCCO3)c2cc2c(=O)cc(C(=O)[O-])oc12.[Na+].[Na+] | -0.75 | 0.179 |  |
| CCCc1c2nc(C(=O)[O-])cc(C(F)F)c2cc2c(=O)cc(C(=O)[O-])oc12.[Na+].[Na+] | -0.23 | 0.586 |  |
| CCCc1c2nc(C(=O)[O-])cc(N(C)C)c2cc2c(=O)cc(C(=O)[O-])oc12.[Na+].[Na+] | -0.29 | 0.063 | Log PR [4]: -1.2; pKa [5]: 8.26 |
| CCCCCNc1cc(C(=O)[O-])nc2c(CCC)c3oc(C(=O)[O-])cc(=O)c3cc12.[Na+].[Na+] | -1.27 | 0.053 | pKa [2]: 8.7; Log PR [3]: 0.05 |
